Results published in patent US20190358242A1, “COMPOSITIONS, KITS, AND METHODS TO INDUCE ACQUIRED CYTORESISTANCE USING STRESS PROTEIN INDUCERS” (FRED HUTCHINSON CANCER RESEARCH CENTER, priority 2017, published 2019).

Tested on: glycerol model of rhabdomyolysis-induced AKI
Test: Glycerol model of rhabdomyolysis-induced AKI
Assay type: in vivo, CD-1 mice
Details: IV pretreatment 18 h before glycerol; 18 hours after glycerol
Protocol: Assessments of cytoresistance. Glycerol model of rhabdomyolysis-induced AKI. Twenty mice were divided into 4 equal groups (controls, mice treated with N-Mgb, SnPP, and mice treated with N-Mgb+SnPP tail vein injections) as described previously. 18 hours later, the mice were briefly anesthetized with isoflurane and immediately injected with 9 mL/kg of 50% glycerol, administered in equally divided doses into each hind limb. At 18 hours after glycerol injection, the mice were anesthetized with pentobarbital, the abdomen was opened, a blood sample for BUN and creatinine assessments was obtained from the vena cava, and the kidneys were resected. The control post-glycerol group and the N-Mgb+SnPP-pretreated glycerol group had kidney sections stained with H&E.
To assess whether the previously determined plasma and kidney HO-1 and haptoglobin levels correlated with degrees of cytoresistance, additional mice were injected with 0, 2.5, or 5 mg of N-Mgb […] of SnPP (n=3 mice per group). Eighteen hours later, all mice were subjected to the glycerol AKI model as described previously. Severities of AKI were determined 18 hours after glycerol injection by BUN and plasma creatinine analyses.
Calculations and statistics. All values are given as the mean […] standard error of the mean. Statistical comparisons were made by unpaired Student's t test. […]

Structure (SMILES): C=Cc1c2[n-]c(c1C)/C=c1\[n-]/c(c(C)c1C=C)=C\c1[n-]c(c(CCC(=O)O)c1C)/C=c1\[n-]c(c(C)c1CCC(=O)O)=C2.[Sn+4] [SnPP, tin protoporphyrin]
- Protection against glycerol-induced AKI judged by BUN/creatinine levels: virtually no effect
